The values that follow come from patent US20110015162A1, “15,16-Methylene-17-hydroxy-19-nor-21-carboxylic acid-steroid Y-lactone derivative, use thereof and medicinal products containing the derivative” (Bayer Schering Pharma Aktiengesellschaft, priority 2007, published 2011).

One assay deals with T1, progesterone receptor (Homo sapiens, UniProt P06401).
T1 construct: made in house; host or cells: Hi5 insect cells (cytosol)
T1 sequence (P06401 1-933): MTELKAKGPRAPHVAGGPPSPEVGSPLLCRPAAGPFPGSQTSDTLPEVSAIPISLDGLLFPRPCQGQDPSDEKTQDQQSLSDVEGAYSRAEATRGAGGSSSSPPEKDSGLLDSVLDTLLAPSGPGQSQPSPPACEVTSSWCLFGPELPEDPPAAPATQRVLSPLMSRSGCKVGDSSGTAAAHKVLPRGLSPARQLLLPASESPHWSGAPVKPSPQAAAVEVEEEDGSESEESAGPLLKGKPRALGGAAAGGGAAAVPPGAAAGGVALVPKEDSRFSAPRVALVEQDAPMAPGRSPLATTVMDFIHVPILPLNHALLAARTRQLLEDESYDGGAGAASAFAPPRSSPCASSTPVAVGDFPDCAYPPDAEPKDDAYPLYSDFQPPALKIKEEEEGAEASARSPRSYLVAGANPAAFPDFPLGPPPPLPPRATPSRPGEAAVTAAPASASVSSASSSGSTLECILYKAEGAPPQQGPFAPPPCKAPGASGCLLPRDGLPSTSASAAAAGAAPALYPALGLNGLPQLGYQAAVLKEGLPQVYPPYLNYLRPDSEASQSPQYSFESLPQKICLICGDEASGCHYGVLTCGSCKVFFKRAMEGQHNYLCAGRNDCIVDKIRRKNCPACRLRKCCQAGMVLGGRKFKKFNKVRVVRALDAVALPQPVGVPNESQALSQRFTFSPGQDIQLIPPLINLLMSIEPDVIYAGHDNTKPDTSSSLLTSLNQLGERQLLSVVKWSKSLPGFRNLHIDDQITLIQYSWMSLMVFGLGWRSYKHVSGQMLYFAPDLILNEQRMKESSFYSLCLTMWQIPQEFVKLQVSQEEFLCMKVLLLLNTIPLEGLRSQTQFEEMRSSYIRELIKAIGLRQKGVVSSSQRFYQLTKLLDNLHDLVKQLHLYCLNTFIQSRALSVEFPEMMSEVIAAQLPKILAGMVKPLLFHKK
Nature of the assay: Progesterone receptor binding test. The following applies: CF 1 = affinity of progesterone; CF >1 lower affinity, <1 higher affinity. As to the method: 1. Progesterone Receptor Binding Test:
(§1) Using cytosol from progesterone receptor-expressing insect cells (Hi5), competitive binding to the progesterone receptor was determined from the ability to displace ^3H-progesterone as reference substance from the receptor.

The target in assay [1] is T2, mineralocorticoid receptor (Homo sapiens, UniProt P08235).
T2 sequence (P08235 1-984): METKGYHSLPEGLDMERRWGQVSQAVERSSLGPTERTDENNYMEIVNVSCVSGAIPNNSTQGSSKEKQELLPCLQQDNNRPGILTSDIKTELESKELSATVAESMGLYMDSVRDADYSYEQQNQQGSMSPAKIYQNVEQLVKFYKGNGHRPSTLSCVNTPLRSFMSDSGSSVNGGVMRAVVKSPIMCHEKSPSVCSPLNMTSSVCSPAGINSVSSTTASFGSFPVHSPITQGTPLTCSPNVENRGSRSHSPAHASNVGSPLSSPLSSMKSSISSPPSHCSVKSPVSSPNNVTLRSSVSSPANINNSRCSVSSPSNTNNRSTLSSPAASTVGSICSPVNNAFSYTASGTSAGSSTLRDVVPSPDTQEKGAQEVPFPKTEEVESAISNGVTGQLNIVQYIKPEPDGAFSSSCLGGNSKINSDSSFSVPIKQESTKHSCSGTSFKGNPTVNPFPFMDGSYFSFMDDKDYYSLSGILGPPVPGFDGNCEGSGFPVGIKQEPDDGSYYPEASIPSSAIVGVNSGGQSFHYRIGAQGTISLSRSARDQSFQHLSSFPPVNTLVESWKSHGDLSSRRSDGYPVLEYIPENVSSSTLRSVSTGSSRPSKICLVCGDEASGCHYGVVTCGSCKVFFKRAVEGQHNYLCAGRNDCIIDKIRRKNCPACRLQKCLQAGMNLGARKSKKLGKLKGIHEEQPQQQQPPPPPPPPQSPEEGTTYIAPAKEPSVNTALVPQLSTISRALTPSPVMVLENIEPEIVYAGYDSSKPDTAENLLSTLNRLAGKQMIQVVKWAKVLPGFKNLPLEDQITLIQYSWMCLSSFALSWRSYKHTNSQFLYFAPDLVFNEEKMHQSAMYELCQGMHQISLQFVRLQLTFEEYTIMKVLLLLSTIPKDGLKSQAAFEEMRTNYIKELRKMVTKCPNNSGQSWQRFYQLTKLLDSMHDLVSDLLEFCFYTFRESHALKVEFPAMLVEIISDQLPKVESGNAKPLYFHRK
The experiment in a line: Mineralocorticoid receptor binding test. Further details: made in house; host or cells: Hi5 insect cells (cytosol). The following applies: reference substance 3H-aldosterone, cytosol from MR-expressing insect cells (Hi5). How it is done: as §1
2. Mineralocorticoid Receptor Binding Test:
The test was carried out as in 1, with the following modifications: cytosol from mineralocorticoid receptor-expressing insect cells (Hi5) was used, and the reference substance was ^3H-aldosterone.

Assay [2] has as its target T3, fusion protein from the PR-ligand-binding domain and a Gal4-transactivation domain (Homo sapiens, UniProt P06401).
T3 construct: expressed in transfected cells; host or cells: CHO K1 cells, stably transfected
Nature of the assay: Progestational action by transactivation test (CHO K1 reporter cells). The assay is classed as cell-based. The conditions noted are these: CHO-K1, 16 h, read-out: Progesterone receptor Agonism efficacy. How it is done:
4. Determination of Progestational Action by Means of Transactivation Tests:
The culture medium used for culture of the cells used for the assay was DMEM (Dulbecco's Modified Eagle Medium: […] glucose; PAA, #E15-009) with 10% FCS (Biochrom, S0115, batch #615B), 4 mM L-glutamine, 1% penicillin/streptomycin, 1 mg/ml G418 and 0.5 μg/ml puromycin.
Reporter cell lines (CHO K1 cells stably transfected with a fusion protein from the PR-ligand-binding domain and a Gal4-transactivation domain and a reporter construct, which contained luciferase under the control of a Gal4-responsive promoter) were seeded at a density of 4×10^4 cells per well in white, opaque tissue culture plates each with 96 wells (PerkinElmer, #P12-106-017) and kept in culture medium with 3% DCC-FCS (serum treated with activated charcoal to remove interfering components contained in the serum). The test compounds were added eight hours later, and the cells were incubated with the compounds for 16 hours. The tests were carried out in triplicate. At the end of incubation the medium containing the effector was removed and replaced with lysis buffer. After luciferase assay substrate (Promega, #E1501) had been added, the 96-well plates were then put in a microplate luminometer (Pherastar, BMG Labtech), and the luminescence was measured. The IC50 values were evaluated using software for calculating dose-effect relations.

Assay [3] concerns the target T2, mineralocorticoid receptor. The experiment in a line: Antimineralocorticoid action by transactivation test (MDCK reporter cells).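 As to Emax: percent inhibition of the aldosterone-stimulated reporter signal.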 The assay is classed as cell-based. Further details: expressed in transfected cells; host or cells: MDCK cells. How it is done:
The test compounds were added eight hours later, and the cells were incubated with the compounds for 16 hours. The tests were carried out in triplicate. At the end of incubation the medium containing the effector was removed and replaced with lysis buffer. After luciferase assay substrate (Promega, #E1501) had been added, the 96-well plates were then put in a microplate luminometer (Pherastar, BMG Labtech), and the luminescence was measured. The IC50 values were evaluated using software for calculating dose-effect relations.
5. Determination of Antimineralocorticoid Action by Means of Transactivation Tests:
The antimineralocorticoid activity of the test substances was determined as for the transactivation tests described above.
The following modifications were undertaken: In this case reporter cell lines were used (MDCK cells) that express the human mineralocorticoid receptor, and transiently contain a reporter construct that contains luciferase under the control of a steroid hormone-responsive promoter.

What is called IC50 is the concentration at which inhibition is half-maximal.

T3 sequence (P04386 1-147 partner limits assumed, one chain of several): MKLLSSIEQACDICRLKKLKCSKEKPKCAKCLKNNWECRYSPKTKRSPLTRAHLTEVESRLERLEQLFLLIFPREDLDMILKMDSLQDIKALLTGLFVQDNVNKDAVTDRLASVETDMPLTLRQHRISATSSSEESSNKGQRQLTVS

For `C[C@]12CCC(=O)C=C1[C@@H]1C[C@@H]1[C@H]1[C@@H]3[C@@H]4C[C@@H]4[C@@]4(CCC(=O)O4)[C@@]3(C)CC[C@@H]12` [A, 6β, 7β;15β,16β-dimethylene-3-oxo-17-pregn-4-ene-21,17β-carbolactone, reference compound], on progesterone receptor, the “Progesterone receptor (PR) Competition factor” value is reported as 2.7. For the same molecule, in assay [1], the “Mineralocorticoid receptor (MR) Competition factor” value came out at 0.5. Besides, the Emax in assay [2] came out at 72.2%; in assay [3] (MDCK, read-out: Mineralocorticoid receptor Antagonism efficacy), 64.1%. The IC50 in assay [3] (MDCK cells, with 1 nM aldosterone, read-out: Mineralocorticoid receptor Antagonism IC50) was 3.3 nM.
